The values that follow come from patent US20090123564A1, “NOVEL COMPOSITIONS FOR HAIR DISORDERS AND PROCESS OF PREPARATION THEREOF” (priority 2006, published 2009).

The subject of data set [1] is dihydrotestosterone (DHT). Conditions: cited from earlier work.
For data set [2], the system named is androgen induced alopecia in hamsters. The experiment in a line: Comparative efficacy of Vernonia anthelmintica extract against finasteride in androgen induced alopecia. The data set is classed as in vivo. The settings on record: for Mean ± SEM hair growth on a 0-3 scale: hamsters given testosterone i.m., treatments twice daily for 21 days, control 2.75 ± 0.171. How it is done:
Hamsters were divided into five different groups; one normal control group, three drug treated groups and one testosterone control group. On day 0 of the study, the fur over and around the flank organs was shaved with electric clippers. 95% alcohol (100 μl/site) was applied topically, twice daily to Testosterone Control and Normal control groups for 21 days. Saw Palmetto cream was applied topically (100 mg/site) twice daily for 21 days. 100 μl/site of 2% solution of Vernonia anthelmintica extract was applied topically, twice daily for 21 days. Finasteride (0.6 mg/kg) was administered orally twice daily for 21 days. Different groups except normal control group was administered testosterone (25 mg, i.m. in divided doses of 33.3 μl on day 0, 7, and 14) 1-hour post drug administration. At day 7, the fur around the flank organs was re-clipped. The amount of hair growth on the area surrounding the flank organs was visually graded at weekly intervals on a 0-3 scale (0=bald skin, 1=slight hair growth, 2=moderate hair growth and 3=full hair growth). The result is presented in table-2 and shown graphically in FIG. 3.

In data set [3] the test system is testosterone-induced alopecia in hamsters. The experiment in a line: Strength of Vernonia creams in testosterone-induced alopecia in hamsters. The data set is classed as in vivo. Conditions: day 22; 0-3 scale; creams 100 mg topical bid for 21 days; normal control=3. As for the experimental part:
Male hamsters (n=6/group) weighing 80-90 g procured from Central animal house of Panacea Biotec Ltd. were used. Drugs used to induce alopecia was Testosterone i.m. depot injection (Testoviron); B.No. K1007, German Remedies Limited; each ml of which contains Testosterone Enanthate USP . . . 250 mg and Arachis oil IP . . . qs. Four batches of Vernonia creams of different strengths were used for conducting the study namely B.No. 0629/010A (2% w/w), B.No. 0629/010C (0.2% w/w), B.No. 0629/014A (2% w/w) and B.No. 0629/014C (0.2% w/w) prepared according to Example-3 and Example 4 as stated hereinafter. The route of administration of the cream compositions was topical and the duration of study was 22 days. The fur over and around the flank organs of hamsters was shaved with electric clippers. Hamsters were divided into four different groups and allocated different treatments. The summary of different treatments is represented in Table-3.
Testosterone was administered intramuscularly in divided doses, whereas Vernonia cream(s) (100 mg) was applied topically twice daily. All the treatments were given for 21 days. On day 7, the fur around the flank organs was re-clipped. […] The hair growth presented as mean was analyzed by one-way ANOVA followed by Student-Newman-Keuls multiple-range test. […]

The test system is the same in data set [4]. The experiment in a line: Dose-response of Vernonia extract gel versus Vernonia freeze dried juice gel in testosterone-challenged hamsters. Format: in vivo. The settings on record: day 22; 0-3 scale; normal control=1.31±0.18. As for the experimental part:
A further study was performed to study the dose-response of Vernonia extract gel and to compare its hair growth promoting effect against Vernonia freeze dried juice gel. The Vernonia extract gel was prepared by making an organic solvent extract of Vernonia and formulating it into a gel composition. The Vernonia freeze dried juice gel was prepared by expressing the juice from fresh leaves and flowering tops of Vernonia followed by freeze drying and formulating it into a gel composition. Male hamsters (n=6-8/group) weighing 80-90 g procured from the Central animal house of Panacea Biotec Ltd. were used. Drugs used to induce alopecia was Testosterone i.m. depot injection (Testoviron); B.No. K1007, German Remedies Limited; each ml of which contains Testosterone Enanthate USP . . . 250 mg and Arachis oil IP . . . qs. The following were used for conducting the study namely Vernonia extract gels B.No. 0629/030A (0.5% w/w), B.No. 0629/030B (1% w/w) and B.No. 0629/030C (2% w/w); and Vernonia freeze dried juice gels B.No. 0629/026A (1.25% w/w) and B.No. 0629/026B (2.5% w/w) (prepared according to Example-5 and Example-6 as stated hereinafter). […]
Testosterone was administered intramuscularly in divided doses, whereas Vernonia cream (s) (100 mg) was applied topically twice daily. […] The hair growth presented as mean was analyzed by one-way ANOVA followed by Student-Newman-Keuls multiple-range test. […]

For data set [5] the test system is unchanged. In words: Vernonia anthelmintica extract against testosterone-induced alopecia in hamsters. Format: in vivo. Conditions: day 22; visual grading on 0-3 scale (0=bald skin, 3=full hair growth); control=2.0. As for the experimental part:
The efficacy of an extract of Vernonia anthelmintica (prepared according to Example-1 as stated hereinafter) against testosterone-induced alopecia in hamsters was studied. Male hamsters (n=6/group) weighing 90-120 g were procured from central animal house of Panacea Biotec Ltd. for study. Drugs used to induce alopecia was Testosterone i.m. depot injection (Testoviron); B.No. K1007, German Remedies Limited; each ml of which contains Testosterone Enanthate USP . . . 250 mg and Arachis oil IP . . . qs. The route of administration of the cream compositions was topical and the duration of study was 22 days. Hamsters were divided into two different groups; one Vernonia anthelmintica extract treated groups and another testosterone control group. On day 0 of study, the fur over and around the flank organs would be shaved with electric clippers.
Testosterone was administered intramuscularly in divided doses, whereas Vernonia anthelmintica extract was applied topically twice daily for 21 days. On day 7, the fur around the flank organs was re-clipped. The amount of hair growth on the area surrounding the flank organs was visually graded on day 22 on a 0-3 scale (0=bald skin, 1=slight hair growth, 2=moderate hair growth and 3=full hair growth). Photographs of flank organ were taken on day 0 and 22. […]

For a further data set, the system named is leukenia cells L-1210. Conditions: L-1210 cells; cited from earlier work.
The next data set concerns leukenia cells P-388. Conditions: P-388 cells; cited from earlier work.
Data set [6] concerns human carcinoma nasopharynx cells. The settings on record: cited from earlier work.

As for `CC(C)(C)NC(=O)[C@H]1CC[C@H]2[C@@H]3CC[C@H]4NC(=O)C=C[C@]4(C)[C@H]3CC[C@]12C` [Finasteride], the “Decrease of DHT concentration in the scalp” value in data set [1] (scalp) is reported as at most 60%. Further, in data set [1] (serum), the “Decrease of DHT concentration in the serum” value is reported as “up to 70%”. In addition, the “Reversal of testosterone induced-hair loss” value in data set [2] (day 22) is “significantly reversed testosterone induced-hair loss”. The “Mean ± SEM hair growth on a 0-3 scale” value in data set [2] turned out to be 2.20 ± 0.339.

In the case of `CCCCCCC(=O)O[C@H]1CC[C@H]2[C@@H]3CCC4=CC(=O)CC[C@]4(C)[C@H]3CC[C@]12C` [Testosterone, Testosterone Enanthate], the “Mean ± SEM hair growth on a 0-3 scale” value in data set [2] worked out at 1.33 ± 0.211. Moreover, the values for the Hair growth score in data set [3], in data set [4] and in data set [5] were 0.13, 0 and 0.58±0.15, respectively.

For vernodaline, the results for the “IC50, antitumoral effects” value in the data set with leukenia cells L-1210 and with leukenia cells P-388 were 0.17 µg/mL and 0.11 µg/mL, respectively.

For vernolide, the entries for the “IC50, antitumoral effects” value with leukenia cells L-1210 and in the data set with leukenia cells P-388 were 0.11 µg/mL and 0.13 µg/mL, respectively. For the same compound, the “IC50, cytotoxic effects” value in data set [6] is 2.0 µg/mL.
